Laboratory results: patent publication US11180529B2, “Alpha-v beta-6 integrin ligands and uses thereof” (Arrowhead Pharmaceuticals, Inc., priority 2016, dated 2021)
Non-standard residues stand in square brackets, D forms with d. No end group written: not given here. Cit = NC(=O)NCCC[C@H](N)C(=O)O; R(Me)2 = dimethyl-arginine; Abu = CC[C@H](N)C(=O)O; Aib = CC(C)(N)C(=O)O

Key:
[1] = system: H2009 (human lung epithelial adenocarcinoma) cells, αvβ6 integrin expressing; test: αvβ6 ligand binding, flow cytometry of Cy5-labeled ligand-polymer conjugates, H2009 αvβ6 positive cells; assay type: cell-based; conditions: Cy5-polymer conjugate 5 μg/ml, 37° C., 3 h, specific MFI ratio = sample MFI/no-ligand MFI
Procedure: (§1) Each αvβ6 ligand was attached to a reversibly modified 1170-100B polymer cargo molecule. The 1170-100B polymer cargo molecule (a 56:44 ethoxyethylamine acrylate:propyl acrylate copolymer having a MW of about 45000) was labeled with Cy5 (NHS linker) and combined with aldehyde-PEG24-ACit at a weight ratio of 2:1 (polymer:aldehyde-PEG24-ACit) in 50 mM HEPES pH 9.0 buffer for 1 h at RT to form (aldehyde-PEG24-ACit)n-1170-100B wherein n is an integer greater than 0. Typically, n was about 10.
(§2) The aldehyde-PEG24-ACit-modified polymer was then reacted with PEG12-ACit at a weight ratio of 1:8 (polymer:PEG12-ACit) in 50 mM HEPES, pH 9.0 buffer for 1 h at RT to form (aldehyde-PEG24-ACit)n-1170-100B-(CitA-PEG12)m, wherein m is an integer greater than 0.
(§3) The modified polymer was then purified using a sephadex G-50 spin column and concentration determined:
(§4) Each αvβ6 ligand was modified with HyNic to facilitate conjugation to the cargo molecule. Purified polymer was combined with αvβ6 ligand-(PEG)8-K-HyNic at a weight ratio of 1:1.9 (polymer: αvβ6 ligand) in 50 mM NaOAC-HOAc, pH 5.0 buffer at RT overnight to form the αvβ6 ligand-polymer conjugate. The αvβ6 ligand-polymer conjugate was purified using a sephadex G-50 spin column.
Conjugation efficiency was quantified by measuring Absorbance of the αvβ6-polymer conjugate at 354 nm using an extinction coefficient of […] M^−1 cm^−1 for bis-aryl hydrazone bond.
αvβ6-polymer conjugates were diluted with isotonic glucose solution to desired concentrations for further analysis.
To assess for specificity of binding of the αvβ6 ligands to the αvβ6 integrin, each αvβ6 ligand or negative control peptide was conjugated to a Cy5-labeled polymer (as described above) and evaluated for binding to cells. […] H2009 (human lung epithelial adenocarcinoma) and CAPAN-2 (human pancreas adenocarcinoma) cells served as the αvβ6 positive-control cell lines. Cells were detached from culturing flasks with Accutase, washed in PBS, and seeded into 5 ml polystyrene round-bottom tubes at 200,000 cells in 200 μl complete media (culturing media with supplements and fetal calf serum). αvβ6 ligand-polymer conjugates or no-ligand-polymer conjugates were added at 5 μg/ml (polymer-Cy5 concentration) to cells, mixed and incubated at 37° C. for 3 h. Incubation at 37° C. facilitated ligand/receptor interaction which may result in static binding to the extracellular cell surface and/or internalized ligand/receptor complexes. The mixture was re-suspended at 1 h intervals. Following a 3 h incubation, cells were washed 2× with 4 ml chilled buffer (PBS-2% FCS) and re-suspended in 200 μl buffer containing 10 μM SYTOX blue stain for live/dead cell gating. Samples were analyzed on a BD Biosciences Canto II cytometer equipped with a violet (405 nm), blue (488 nm) and red (633 nm) lasers. Viable cells were initially gated as the SYTOX blue negative population on the C detector with the violet laser. These viable cells were then assessed for conjugate binding/uptake with the red laser as the Mean Fluorescence Intensity (MFI) of the Cy5 fluorophore. Data analyses were performed with FlowJo v10.1 software. A specific MFI Ratio (sMFIr) for each αvβ6 ligand was determined by the formula: specific sample MFI value/no-ligand MFI value.

[2] = system: SKOV3 (human ovarian carcinoma) cells, very low αvβ6 cell surface expression; test: αvβ6 ligand binding, flow cytometry of Cy5-labeled ligand-polymer conjugates, SKOV3 negative-control cells; assay type: cell-based; conditions: Cy5-polymer conjugate 5 μg/ml, 37° C., 3 h; specific MFI ratio = sample MFI/no-ligand MFI
Procedure: as §1, §2, §3, §4
Conjugation efficiency was quantified by measuring Absorbance of the αvβ6-polymer conjugate at 354 nm using an extinction coefficient of […] M^−1 cm^−1 for bis-aryl hydrazone bond. […]
To assess for specificity of binding of the αvβ6 ligands to the αvβ6 integrin, each αvβ6 ligand or negative control peptide was conjugated to a Cy5-labeled polymer (as described above) and evaluated for binding to cells. […] Samples were analyzed on a BD Biosciences Canto II cytometer equipped with a violet (405 nm), blue (488 nm) and red (633 nm) lasers. […] These viable cells were then assessed for conjugate binding/uptake with the red laser as the Mean Fluorescence Intensity (MFI) of the Cy5 fluorophore. […] A specific MFI Ratio (sMFIr) for each αvβ6 ligand was determined by the formula: specific sample MFI value/no-ligand MFI value.

Row | Substance | MFI H2009 [1] | MFI H2009 ([1]; listed as AcR(Me)2GDLATLRQL) | MFI SKOV3 [2]
1 | Ac-R(Me)2GDLATLRQL (Ac-[R(Me)2]GDLATLRQL) [negative control peptide] | 1 | did not show significant binding | 0.9
2 | CH3(CH2)2-RGDLAAbuLCitAib ({CH3(CH2)2}-RGDLA[Abu]L[Cit][Aib]) | 3.9 | – | –
3 | CH3(CH2)3-RGDLAAbuLCitAib ({CH3(CH2)3}-RGDLA[Abu]L[Cit][Aib]) | 4.7 | – | –
4 | CH3(CH2)4-RGDLAAbuLCitAib ({CH3(CH2)4}-RGDLA[Abu]L[Cit][Aib]) | 4.1 | – | –
5 | CH3CH2-RGDLAAbuLCitAib (CH3CH2-RGDLA[Abu]L[Cit][Aib]) | 4.4 | – | –
6 | Dap(guanidino)-GDLATLRQL ({Dap(guanidino)}-GDLATLRQL) | 3.4 | – | 1.4
7 | des-amino-RGDLATLRQL ({des‑amino}-RGDLATLRQL; not fully specified (residue 1); printed as des-amino-RGDLATLRQL) | 1.1 | – | 0.8
8 | meta-guanidino-benzoic-GDLATLRQL ({meta‑guanidino‑benzoic}-GDLATLRQL) | 4.5 | – | –
